{"source": "patent US6083977A", "about": "“Trienoic retinoid compounds and methods” (Ligand Pharmaceuticals Incorporated, priority 1995, dated 2000)", "key": {"[1]": {"tested_on": "RAR and RXR receptors", "assay": "Binding to the RAR and RXR receptors", "details": "relative to ATRA (RAR) and 9-cis (RXR)"}, "[2]": {"tested_on": "RARs or RXRs", "assay": "Co-transfection assay, RAR and RXR receptors", "format": "cell-based", "details": "for potency profile compared to 9-cis retinoic acid (in words): relative to 9-cis", "method": "(§1) Utilizing the \"cis-trans\" or \"co-transfection\" assay described by Evans et al., Science, 240:889-95 (May 13, 1988), the disclosure of which is herein incorporated by reference, the retinoid compounds of the present invention were tested and found to have strong, specific activity as either selective RAR agonists, selective RXR agonists, or as pan-agonist activators of both RAR and RXR receptors. This assay is described in further detail in U.S. Pat. Nos. 4,981,784 and 5,071,773, the disclosures of which are incorporated herein by reference.\n(§2) The co-transfection assay provides a method for identifying functional agonists which mimic, or antagonists which inhibit, the effect of native hormones, and quantifying their activity for responsive IR proteins. In this regard, the co-transfection assay mimics an in vivo system in the laboratory. Importantly, activity in the co-transfection assay correlates very well with known in vivo activity, such that the co-transfection assay functions as a qualitative and quantitative predictor of a tested compounds in vivo pharmacology. See, e.g., T. Berger et al. 41 J. Steroid Biochem. Molec. Biol. 773 (1992), the disclosure of which is herein incorporated by reference.\n(§3) In the co-transfection assay, a cloned cDNA for an IR (e.g., human RARα, RARβ, RXRγ) under the control of a constitutive promoter (e.g., the SV 40 promoter) is introduced by transfection (a procedure to induce cells to take up foreign genes) into a background cell substantially devoid of endogenous IRs. This introduced gene directs the recipient cells to make the IR protein of interest. A second gene is also introduced (co-transfected) into the same cells in conjunction with the IR gene. This second gene, comprising the cDNA for a reporter protein, such as firefly luciferase (LUC), is controlled by an appropriate hormone responsive promoter containing a hormone response element (HRE). This reporter plasmid functions as a reporter for the transcription-modulating activity of the target IR. Thus, the reporter acts as a surrogate for the products (mRNA then protein) normally expressed by a gene under control of the target receptor and its native hormone.\n(§4) The co-transfection assay can detect small molecule agonists or antagonists of target IRs. Exposing the transfected cells to an agonist ligand compound increases reporter activity in the transfected cells. This activity can be conveniently measured, e.g., by increasing luciferase production, which reflects compound-dependent, IR-mediated increases in reporter transcription. […] . Increasing concentrations of a suspected antagonist will decrease the reporter signal (e.g., luciferase production). The co-transfection assay is therefore useful to detect both agonists and antagonists of specific IRs. Furthermore, it determines not only whether a compound interacts with a particular IR, but whether this interaction mimics (agonizes) or blocks (antagonizes) the effects of the native regulatory molecules on target gene expression, as well as the specificity and strength of this interaction.\nTo determine RAR and/or RXR agonist activity of the compounds of the present invention, the CV-1 cells were transiently transfected by calcium phosphate coprecipitation according to the procedure of Berger et al., 41 J. Steroid Biochem. Mol. Biol., 733 (1992) with the following receptor expressing plasmids: pRShRARα: Giguere et al., 330 Nature, 624 (1987); pRShRARβ and pRShRARγ, Ishikawa et al., 4 Mol. Endocrin., 837 (1990); pRShRXRα, Mangelsdorf et al., 345 Nature, 224 (1990); and pRSmRXRβ and pRSmRXRγ, Mangelsdorf et al., 6 Genes & Devel., 329 (1992), the disclosures of which are herein incorporated by reference."}, "[3]": {"tested_on": "RARs", "assay": "Co-transfection assay, RAR subfamily", "format": "cell-based, human", "method": "as §1, §2, §3\nas §4, with “interaction. […]” for “interaction.”"}, "[4]": {"tested_on": "ornithine decarboxylase (ODC)", "assay": "Ornithine decarboxylase assay: inhibition of TPA induction of ODC", "format": "cell-based"}}, "data": [{"molecule": "C/C(=C/C=C/C(C)=C/C(=O)O)c1cc(C(C)(C)C)cc(C(C)(C)C)c1", "note": "[Compound 10, (2E, 4E, 6Z)-7-(3,5-Di-t-butylphenyl)-3-methylocta-2,4,6-trienoic acid]", "values": [{"measurement": "binding compared to ATRA and 9-cis (in words)", "setting": "[1]", "value": "equal or superior binding"}, {"measurement": "potency profile compared to 9-cis retinoic acid (in words)", "setting": "[2]", "value": "superior potency profile"}]}, {"molecule": "COc1c(C(C)(C)C)cc(/C(C)=C/C=C/C(C)=C/C(=O)O)cc1C(C)(C)C", "note": "[Compound 47, (2E, 4E, 6E) -3-Methyl-7-(3,5-di-t-butyl-4-methoxyphenyl)octa-2,4,6-trienoic acid]", "values": [{"measurement": "RAR activity (in words)", "setting": "[3]", "value": "extremely potent RAR active compounds"}, {"measurement": "RAR isoform selectivity (in words)", "setting": "[3]", "value": "selectivity on RARβ and RARγ"}]}, {"molecule": "COc1cc(C)c(/C=C/C=C/C=C(\\C)C(=O)O)c(C)c1C", "note": "[C, (2E,4E,6E)-2-methyl-7-(2,3,6-trimethyl-4-methoxyphenyl)hepta-2,4,6-trienoic acid]", "values": [{"measurement": "activity on any of the RARs or RXRs (in words)", "setting": "[2]", "value": "no, or virtually no, activity"}]}, {"molecule": "CCOC(=O)/C=C(C)/C=C/C=C(/C)c1cc(C(C)(C)C)cc(C(C)(C)C)c1", "note": "[Compound 8, Ethyl (2E, 4E, 6Z)-7-(3,5-di-t-butylphenyl)-3-methylocta-2,4,6-trienoate]", "values": [{"measurement": "retinoid activity of ester analogs (in words)", "setting": "[4]", "value": "exhibit retinoid activity"}]}, {"molecule": "CC(/C=C/C=C1\\CCOc2c1cc(C(C)(C)C)cc2C(C)(C)C)=C\\C(=O)O", "note": "[Compound 39, (2E,4E,6E)-6-(6,8,-Di-t-butylchroman-4-ylidene)-3-methylhexa-2,4,6-trienoic acid]", "values": [{"measurement": "RAR activity (in words)", "setting": "[3]", "value": "extremely potent RAR active compounds"}]}, {"molecule": "CC(/C=C/C=C(\\C)c1cc(C(F)(F)F)cc(C(F)(F)F)c1)=C\\C(=O)O", "note": "[Compound 41, (2E, 4E, 6E)-7-(3,5-Di-trifluoromethylphenyl)-3-methylocta-2,4,6-trienoic acid]", "values": [{"measurement": "RAR activity (in words)", "setting": "[3]", "value": "extremely potent RAR active compounds"}]}, {"molecule": "C/C(=C/C=C/C(C)=C/C(=O)O)c1cc(C(C)C)cc(C(C)C)c1", "note": "[Compound 43, (2E, 4E, 6Z)-7-(3,5-Di-isopropylphenyl)-3-methylocta-2,4,6-trienoic acid]", "values": [{"measurement": "potency profile compared to 9-cis retinoic acid (in words)", "setting": "[2]", "value": "superior potency profile"}]}, {"molecule": "COC(/C=C/C=C(\\C)c1ccc(C(C)(C)C)cc1)=C/C(=O)O", "note": "[D, (2E,4E,6E)-3-methoxy-7-(4-t-butylphenyl)octa-2,4,6-trienoic acid]", "values": [{"measurement": "activity on any of the RARs or RXRs (in words)", "setting": "[2]", "value": "no, or virtually no, activity"}]}, {"molecule": "COc1ccc(/C(C)=C/C=C/C(C)=C/C(=O)O)cc1", "note": "[B, (2E, 4E,6E)-3-methyl-7-(4-methoxyphenyl)octa-2,4,6-trienoic acid]", "values": [{"measurement": "activity on any of the RARs or RXRs (in words)", "setting": "[2]", "value": "no, or virtually no, activity"}]}, {"molecule": "CCOC(=O)/C=C(C)/C=C/C=C(\\C)c1cc(C(C)(C)C)cc(C(C)(C)C)c1", "note": "[Compound 7, Ethyl (2E, 4E, 6E)-7-(315-di-t-butylphenyl)-3-methylocta-2,4,6-trienoate]", "values": [{"measurement": "retinoid activity of ester analogs (in words)", "setting": "[4]", "value": "exhibit retinoid activity"}]}, {"molecule": "COc1ccc(/C(C)=C/C=C/C(C)=C/C(=O)O)cc1OC", "note": "[A, (2E,4E,6E)-3-methyl-7-(3,4-dimethoxyphenyl)octa-2,4,6-trienoic acid]", "values": [{"measurement": "activity on any of the RARs or RXRs (in words)", "setting": "[2]", "value": "no, or virtually no, activity"}]}]}
